Laboratory results as given in PubChem BioAssay AID1963851 (Molecular Pharmacology Branch, DTP, NCI, 2024).

System: 188146-221-R-J1-PDC complex spheroid viability
Assay: Anticancer human tumor 188146-221-R-J1-PDC patient-derived colon adenocarcinoma cell line growth inhibition [POLQ]
Settings: for IC50: curve of first compound; for viability, T/C: stronger effect = lower value
Summary of the method: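 Three-cell-type spheroids modelling solid tumor plus stroma served as the readout system; POL inhibitors were tested individually and in combination, concentration ranges set by clinical Cmax where known.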

[1] = second compound 0.0316 µM, first compound 0.0316 µM
[2] = second compound 0.0316 µM, first compound 0.1 µM
[3] = second compound 0.0316 µM, first compound 0.316 µM
[4] = second compound 0.0316 µM, first compound 1 µM
[5] = second compound 0.1 µM, first compound 0.0316 µM
[6] = second compound 0.1 µM, first compound 0.1 µM
[7] = second compound 0.1 µM, first compound 0.316 µM
[8] = second compound 0.1 µM, first compound 1 µM
[9] = second compound 0.316 µM, first compound 0.0316 µM
[10] = second compound 0.316 µM, first compound 0.1 µM
[11] = second compound 0.316 µM, first compound 0.316 µM
[12] = second compound 0.316 µM, first compound 1 µM
[13] = second compound 1 µM, first compound 0.0316 µM
[14] = second compound 1 µM, first compound 0.1 µM
[15] = second compound 1 µM, first compound 0.316 µM
[16] = second compound 1 µM, first compound 1 µM
[17] = second compound 3.16 µM, first compound 0.0316 µM
[18] = second compound 3.16 µM, first compound 0.1 µM
[19] = second compound 3.16 µM, first compound 0.316 µM
[20] = second compound 3.16 µM, first compound 1 µM
[21] = second compound 10 µM, first compound 0.0316 µM
[22] = second compound 10 µM, first compound 0.1 µM
[23] = second compound 10 µM, first compound 0.316 µM
[24] = second compound 10 µM, first compound 1 µM
[25] = second compound 0.0316 µM, first compound 0.00316 µM
[26] = second compound 0.0316 µM, first compound 0.01 µM
[27] = second compound 0.1 µM, first compound 0.00316 µM
[28] = second compound 0.1 µM, first compound 0.01 µM
[29] = second compound 0.316 µM, first compound 0.00316 µM
[30] = second compound 0.316 µM, first compound 0.01 µM
[31] = second compound 1 µM, first compound 0.00316 µM
[32] = second compound 1 µM, first compound 0.01 µM
[33] = second compound 3.16 µM, first compound 0.00316 µM
[34] = second compound 3.16 µM, first compound 0.01 µM
[35] = second compound 10 µM, first compound 0.00316 µM
[36] = second compound 10 µM, first compound 0.01 µM
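Note: spheroids exposed to compounds for seven days.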
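Throughout, for viability, T/C: 100% = DMSO vehicle control viability.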

Compound: CCCS(=O)(=O)Nc1ccc(F)c(C(=O)c2c[nH]c3ncc(-c4ccc(Cl)cc4)cc23)c1F + Nc1ccc(C#CCN(C(=O)Cc2ncc(C(F)(F)F)cc2C(F)(F)F)c2ccc(F)cc2)nn1
- IC50 (second compound 0.0316 µM): 6.67 µM
- IC50 (second compound 0.1 µM): 6.11 µM
- IC50 (second compound 0.316 µM): 6.9 µM
- IC50 (second compound 1 µM): 6.33 µM
- IC50 (second compound 3.16 µM): 6.27 µM
- IC50 (second compound 10 µM): 6.54 µM
- viability, T/C [1]: 104%
- viability, T/C [2]: 116%
- viability, T/C [3]: 101%
- viability, T/C [4]: 84.7%
- viability, T/C (second compound 0.0316 µM, first compound 3.16 µM): 85.3%
- viability, T/C (second compound 0.0316 µM, first compound 10 µM): 33.6%
- viability, T/C [5]: 119%
- viability, T/C [6]: 98.2%
- viability, T/C [7]: 103%
- viability, T/C [8]: 89.2%
- viability, T/C (second compound 0.1 µM, first compound 3.16 µM): 81.9%
- viability, T/C (second compound 0.1 µM, first compound 10 µM): 29%
- viability, T/C [9]: 94.4%
- viability, T/C [10]: 99.6%
- viability, T/C [11]: 101%
- viability, T/C [12]: 88.7%
- viability, T/C (second compound 0.316 µM, first compound 3.16 µM): 93.8%
- viability, T/C (second compound 0.316 µM, first compound 10 µM): 29.2%
- viability, T/C [13]: 95.9%
- viability, T/C [14]: 96.7%
- viability, T/C [15]: 88.9%
- viability, T/C [16]: 76.8%
- viability, T/C (second compound 1 µM, first compound 3.16 µM): 80.2%
- viability, T/C (second compound 1 µM, first compound 10 µM): 33%
- viability, T/C [17]: 98.5%
- viability, T/C [18]: 104%
- viability, T/C [19]: 104%
- viability, T/C [20]: 77.2%
- viability, T/C (second compound 3.16 µM, first compound 3.16 µM): 84%
- viability, T/C (second compound 3.16 µM, first compound 10 µM): 30.6%
- viability, T/C [21]: 116%
- viability, T/C [22]: 112%
- viability, T/C [23]: 103%
- viability, T/C [24]: 91.5%
- viability, T/C (second compound 10 µM, first compound 3.16 µM): 82.5%
- viability, T/C (second compound 10 µM, first compound 10 µM): 33.1%

Compound: CC[C@@]1(O)C(=O)OCc2c1cc1n(c2=O)Cc2cc3c(CN(C)C)c(O)ccc3nc2-1 + Nc1ccc(C#CCN(C(=O)Cc2ncc(C(F)(F)F)cc2C(F)(F)F)c2ccc(F)cc2)nn1
- IC50 (second compound 0.0316 µM): > 0.1 µM
- IC50 (second compound 0.1 µM): > 0.1 µM
- IC50 (second compound 0.316 µM): > 0.1 µM
- IC50 (second compound 1 µM): > 0.1 µM
- IC50 (second compound 3.16 µM): > 0.1 µM
- IC50 (second compound 10 µM): > 0.1 µM
- viability, T/C (second compound 0.0316 µM, first compound 0.000316 µM): 89.7%
- viability, T/C (second compound 0.0316 µM, first compound 0.001 µM): 95.7%
- viability, T/C [25]: 84.3%
- viability, T/C [26]: 101%
- viability, T/C [1]: 96.4%
- viability, T/C [2]: 73.5%
- viability, T/C (second compound 0.1 µM, first compound 0.000316 µM): 118%
- viability, T/C (second compound 0.1 µM, first compound 0.001 µM): 84.1%
- viability, T/C [27]: 95.1%
- viability, T/C [28]: 100%
- viability, T/C [5]: 84.9%
- viability, T/C [6]: 74.9%
- viability, T/C (second compound 0.316 µM, first compound 0.000316 µM): 104%
- viability, T/C (second compound 0.316 µM, first compound 0.001 µM): 88.4%
- viability, T/C [29]: 101%
- viability, T/C [30]: 97.5%
- viability, T/C [9]: 103%
- viability, T/C [10]: 69.5%
- viability, T/C (second compound 1 µM, first compound 0.000316 µM): 103%
- viability, T/C (second compound 1 µM, first compound 0.001 µM): 102%
- viability, T/C [31]: 90.5%
- viability, T/C [32]: 86.4%
- viability, T/C [13]: 82.3%
- viability, T/C [14]: 68.2%
- viability, T/C (second compound 3.16 µM, first compound 0.000316 µM): 106%
- viability, T/C (second compound 3.16 µM, first compound 0.001 µM): 92.9%
- viability, T/C [33]: 95.1%
- viability, T/C [34]: 89.3%
- viability, T/C [17]: 83%
- viability, T/C [18]: 80.1%
- viability, T/C (second compound 10 µM, first compound 0.000316 µM): 100%
- viability, T/C (second compound 10 µM, first compound 0.001 µM): 96.8%
- viability, T/C [35]: 98.9%
- viability, T/C [36]: 98.3%
- viability, T/C [21]: 90.5%
- viability, T/C [22]: 66.2%

Compound: COc1cccc(OCCCN)c1-c1cc(Nc2cnc(C#N)cn2)n[nH]1 + Cc1cccc(N(C)C(=O)C2C(O)CCN2c2nc(C)cc(C(F)(F)F)c2C#N)c1
- IC50 (second compound 0.0316 µM): 0.0555 µM
- IC50 (second compound 0.1 µM): 0.0609 µM
- IC50 (second compound 0.316 µM): 0.0515 µM
- IC50 (second compound 1 µM): 0.0412 µM
- IC50 (second compound 3.16 µM): 0.0473 µM
- IC50 (second compound 10 µM): 0.0222 µM
- viability, T/C [25]: 100%
- viability, T/C [26]: 103%
- viability, T/C [1]: 61.5%
- viability, T/C [2]: 36.1%
- viability, T/C [3]: 18.5%
- viability, T/C [4]: 12.1%
- viability, T/C [27]: 99.9%
- viability, T/C [28]: 90%
- viability, T/C [5]: 75.8%
- viability, T/C [6]: 30.7%
- viability, T/C [7]: 15.9%
- viability, T/C [8]: 14.2%
- viability, T/C [29]: 105%
- viability, T/C [30]: 89.7%
- viability, T/C [9]: 66%
- viability, T/C [10]: 29.6%
- viability, T/C [11]: 17.4%
- viability, T/C [12]: 13.6%
- viability, T/C [31]: 113%
- viability, T/C [32]: 104%
- viability, T/C [13]: 54.4%
- viability, T/C [14]: 29%
- viability, T/C [15]: 17.1%
- viability, T/C [16]: 12.6%
- viability, T/C [33]: 91.7%
- viability, T/C [34]: 82.1%
- viability, T/C [17]: 62.8%
- viability, T/C [18]: 27.7%
- viability, T/C [19]: 15.6%
- viability, T/C [20]: 14%
- viability, T/C [35]: 96%
- viability, T/C [36]: 75.3%
- viability, T/C [21]: 37.3%
- viability, T/C [22]: 24.4%
- viability, T/C [23]: 16.9%
- viability, T/C [24]: 14.6%
